Assay results reported in US20250249110A1, “ANTIMICROBIAL PEPTIDE DERIVATIVE AND USE THEREOF” (SICHUAN UNIVERSITY, priority 2016, published 2025).
Where a SMILES comes first, the peptide text is derived from it. The star is where a group is joined. Succinyl(4-O-cholesteryl) = CC(C)CCC[C@@H](C)[C@H]1CC[C@H]2[C@@H]3CC=C4C[C@@H](OC(=O)CCC(=O)*)CC[C@]4(C)[C@H]3CC[C@]12C

Legend:
[1] = system: Staphylococcus aureus 33591; test: Intra-abdominally infected mouse model; type: in vivo; conditions: intravenous administration
Protocol: The anti-infection activity of DP7-C is determined by the intra-abdominally infected models. […]
The experimental steps are as follows: • (1) Activate Staphylococcus aureus 33591 with MHB the day before the experiment, wash the activated strains twice with normal saline on the day of the experiment, and determine the concentration of bacterial liquid for later use. • (2) To establish an abdominally infected mouse model, intraperitoneally inject the bacterial solution of 1.5×10^8 cfu/0.5 mL into each mouse. • (3) Intravenously inject the drug by group after one hour of infection, 0.1 mL/mouse. • (4) 24 h later, intraperitoneally inject 5 mL of normal saline into the mouse, gently massage the abdomen, kill the mouse and disinfect with 75% alcohol. After 5 min, scissor the abdominal cavity epithelium, make a small opening in the abdominal cavity, draw ascites as much as possible from the opening with a 1 ml syringe, and then transfer to a sterile EP tube for mixing. • (5) Dilute with normal saline at a dilution of, for example, 10×, 100×, 1000× and 10000×; take three bacterial solutions with suitable concentrations, 20 μL each, coat the MHA plate and incubate in a bacteria incubator overnight. • (6) Select a plate with 20-200 colonies and convert and calculate the amount of bacteria per milliliter in 5 milliliters of ascites.

[2] = system: DC cells; test: Uptake of OVA antigen by dendritic cells (flow cytometry); type: cell-based, mouse; conditions: 3 h
Protocol: DC cells are the most powerful antigen presenting cells in the body, which can absorb foreign substances, process and present them to T cells to stimulate immune response. DC cells play an important role in T cell immune response and production of T cell dependent antibody. We examined the effect of DP7-C on DC presenting antigen by flow cytometry.
The experimental steps are as follows: • (1) Isolate C57/BL mouse primary bone marrow cells and incubate in the induced medium containing 10 ng/ml of GM-CSF and 10 ng/ml of IL-4 for 5 days. • (2) Add the OVA protein markers FITC, OVA or DP7-C/OVA into DC cell culture, mix well and incubate for 3 h. • (3) Collect the stimulated DC cells, wash with PBS twice, re-suspend the cells in 300 μL of PBS, and perform flow cytometry.

[3] = Morphology under transmission electron microscopy; type: physicochemical; conditions: TEM
Protocol: As the DP7 is positively charged, the DP7-C micelle formed by self-assembly is also positively charged in aqueous solution, showing its potential as a non-viral gene transmission vector, especially siRNA transmission vector. The morphology of DP7-C micelles formed by self-assembly and DP7-C/siRNA complexes is observed under a transmission electron microscopy (H-6009IV, Hitachi, Japan). First, 1 mg\mL of micellar solution is diluted with distilled water and coated on a copper mesh, covered with nitrocellulose, then negatively stained with phosphotungstic acid, dried at room temperature and observed under an electron microscope. […] Under the electron microscope, the particle size of DP7-C micelles is about 60 nm, and the particle size of DP7-C micelle/siRNA complex is about 100 nm (see FIGS. 14A and 14B for the results).

CC[C@H](C)[C@H](NC(=O)[C@H](CCCNC(=N)N)NC(=O)[C@H](Cc1c[nH]c2ccccc12)NC(=O)[C@H](CCC(N)=O)NC(=O)[C@@H](NC(=O)CCC(=O)O[C@H]1CC[C@@]2(C)C(=CC[C@H]3[C@@H]4CC[C@H]([C@H](C)CCCC(C)C)[C@@]4(C)CC[C@@H]32)C1)C(C)C)C(=O)N[C@@H](CCCNC(=N)N)C(=O)N[C@H](C(=O)N[C@@H](C)C(=O)N[C@H](C(=O)N[C@H](C(=O)N[C@@H](CCCNC(=N)N)C(=O)N[C@@H](CCCCN)C(N)=O)[C@@H](C)CC)C(C)C)C(C)C [DP7-C, Chol-suc-VQWRIRVAVIRK-NH2] ({Succinyl(4-O-cholesteryl)}-VQWRIRVAVIRK-NH2)
average colony forming unit (CFU) of Staphylococcus aureus ([1]; DP7-C 1 mg/kg, VAN 20 mg/kg, vs NS group, p<0.01): significantly lower than those in NS group
antibacterial effect compared with positive drug group ([1]; no statistical difference): basically the same as that of the positive drug group
uptake of antigen by DC cells ([2]; 2.5 μg/ml): significantly increase
uptake of OVA by DC cells ([2]; 40 μg/ml): slightly enhanced
particle size under the electron microscope [3]: about 60 nm
